The results in this text go back to PubChem BioAssay AID463203 (Broad Institute, 2010).

In general, AC50 refers to the midpoint of the concentration-response curve, whichever way the signal moves.

This assay addresses Glycogen synthase kinase-3 alpha (Homo sapiens) (UniProt P49840). In words: concentration-response blocking of human GSK3A – biochemical, luminescence, cell-free homogeneous, retest, dose response (AID 463203). To be noted: GSK-3 alpha enzyme, ADP-Glo luminescence, 60 min. (ADP-Glo turns the ADP formed in a reaction into a luminescent signal.)

Active and inactive are the calls of the source.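 The calls were made as follows: active = more than half of replicate measurements showing over 20% loss of kinase signal relative to plate controls; inconclusive = some but at most half of replicates over 20% loss; inactive = no replicate over 20% signal loss.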 A value given as a limit tells only on which side of the number the result lay.

Chain of Glycogen synthase kinase-3 alpha (Homo sapiens) (P49840 whole entry, looked up): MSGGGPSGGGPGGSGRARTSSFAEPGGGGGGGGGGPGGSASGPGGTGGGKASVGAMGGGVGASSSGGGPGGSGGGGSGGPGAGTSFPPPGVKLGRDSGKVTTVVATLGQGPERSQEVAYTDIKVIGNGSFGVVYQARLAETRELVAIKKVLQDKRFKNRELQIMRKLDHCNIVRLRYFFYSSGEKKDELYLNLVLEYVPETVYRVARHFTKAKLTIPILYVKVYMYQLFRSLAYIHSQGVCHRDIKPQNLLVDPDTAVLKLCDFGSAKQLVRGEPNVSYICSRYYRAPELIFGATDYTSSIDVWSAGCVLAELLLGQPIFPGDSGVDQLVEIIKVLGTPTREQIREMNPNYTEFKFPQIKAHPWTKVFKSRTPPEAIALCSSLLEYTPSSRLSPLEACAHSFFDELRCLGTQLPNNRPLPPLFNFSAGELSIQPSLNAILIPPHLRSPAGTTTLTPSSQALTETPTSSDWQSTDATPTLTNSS

For the compound `O=C(NCc1ccccc1)c1ccc2c(=O)[nH]c3c(C(=O)NCC4CCCO4)sc(=S)n3c2c1` (configuration not stated), the AC50 was 14 µM. For the compound `COc1ccc([C@H]2[C@H](C(=O)C(C)(C)C)N3N=Cc4ccccc4C3[C@]23N=C(c2ccccc2)OC3=O)cc1OC` (some centres not stated), the AC50 was > 30 µM (inactive). With `Cc1ccc(/C=N/NC(=O)c2nnn(-c3nonc3N)c2CN(C)C2CCCCC2)cc1`, the AC50 is > 30 µM (inactive).

As for `COc1ccc2nc(NC(=O)CSc3cn[nH]n3)sc2c1`, the AC50 is 9.56 µM. The same measure for `CCOc1ccccc1-n1c(O)c(C=NCCCn2ccnc2)c(=O)[nH]c1=O`: 20.5 µM; for `c1ccc(-c2csc3ncnc(NCc4ccccn4)c23)cc1`: 24.5 µM.

Turning to `COc1c2ccccc2c(OC)c2ccccc12`, the AC50 was > 30 µM (inactive). Then `Cc1cccc(NC(=O)c2sc(Cl)nc2-c2ccccc2)c1`, with > 30 µM (inactive); and `CN(Cc1c(C(=O)N/N=C/c2cccc(O)c2)nnn1-c1nonc1N)c1ccccc1`, with 2.8 µM. The same measure for `Cc1sc2ncnc(NCCN3CCOCC3)c2c1C`: > 30 µM (inactive). Then `COc1cc(/C=N/c2oc(C)c(C)c2C#N)cc(Br)c1O`, with > 30 µM (inactive); and `Cc1cccc(-c2nnc(SCc3nc4ccccc4[nH]3)n2Cc2ccco2)c1`, with > 30 µM (inactive). Consider `COc1cccc(NC(=O)[C@@H]2CCCN2S(=O)(=O)c2cccc3cccnc23)c1`, for which the AC50 is 18.1 µM. `O=C(c1ccc2c(c1)OCO2)N1CCC2(CC1)OCCO2`: the AC50 was > 30 µM (inactive). The same measure for `Clc1ccc(N/N=C/c2ccncc2)cc1Cl`: > 30 µM (inactive); for `Cc1nc2sc(C(N)=O)c(N)c2c2c1CCCC2`: 28 µM; for `O=c1[nH]c2c(s1)C(c1ccco1)C1C3CCC(C3)C1S2` (configuration not stated): 15.3 µM.

For the compound `O=C(c1ccc(Cl)cc1)c1cnc(Nc2ccccc2)s1`, the AC50 is > 30 µM (inactive).

For `CCN1CCN(CC(=O)Nc2nc3ccc(OC)cc3s2)CC1`, the AC50 is > 30 µM (inactive). Then `CN(C(=O)Oc1ccc([N+](=O)[O-])cc1)c1ccccc1`, with > 30 µM (inactive); and `CCCC1=C(C(=O)OCC)C(c2cccnc2)n2nc(C)nc2N1` (configuration not stated), with > 30 µM (inactive); and `CCNC(=S)NNC(=O)c1cccs1`, with > 30 µM (inactive). As for `O=c1[nH]nc(SCc2nnc(-c3cccc(Cl)c3)o2)n1C1CCCCC1`, the AC50 is > 30 µM (inactive). Then `CCNc1ccccc(C(=O)/C=C/c2ccc3c(c2)OCO3)c1=O`, with > 30 µM (inactive). `CC(C)Nc1nc(NC(C)C)nc(C(=O)OCCO)n1`: the AC50 was > 30 µM (inactive). The same measure for `Cc1c(/C=N/Nc2ccc([N+](=O)[O-])cn2)c2ccccc2n1Cc1ccccc1`: > 30 µM (inactive); for `COc1ccc(Nc2nc(S(=O)(=O)c3ccc(C)cc3)c(Cl)s2)cc1`: > 30 µM (inactive). Then `COc1ccc(CC(=O)Oc2ccccc2C)cc1`, with > 30 µM (inactive); and `Nc1nc(NCCc2ccccc2)nc(NCc2ccccc2)c1[N+](=O)[O-]`, with 1.66 µM; and `Cc1nc(NCC2CCCO2)[nH]c(=O)c1CCC(C)C` (configuration not stated), with > 30 µM (inactive).

Turning to `CN1/C(=C\C=C2C(=O)NC(=O)NC2=O)C(C)(C)c2ccccc21`, the AC50 was 27.9 µM. The same measure for `CC(=O)N1CCc2c(sc(NC(=O)c3cccc(N4C(=O)CCC4=O)c3)c2C(N)=O)C1`: > 30 µM (inactive); for `COc1ccc(-c2noc(CSc3nc(N)c(-c4ccccc4)c(=O)[nH]3)n2)cc1`: > 30 µM (inactive). As for `CCCCN(CCCC)c1cn[nH]c(=O)c1Cl`, the AC50 was 11.2 µM.

`C[C@H]1CN([C@@H](C)CO)C(=O)c2cccc(NC(=O)c3cnccn3)c2O[C@@H]1CN(C)S(=O)(=O)c1ccc(F)cc1`: the AC50 is 7.19 µM. The same measure for `CC(C)(C)c1ccc(CSc2nnc(-c3ccccc3NC(=O)c3ccccc3)o2)cc1`: > 30 µM (inactive); for `COc1ccccc1OCC(=O)Nc1sc2c(c1C(N)=O)CCC2`: > 30 µM (inactive); for `N#Cc1c(Nc2ccccc2)c(C=O)c[nH]c1=O`: > 30 µM (inactive). Consider `O=C1NC(c2ccccc2)(C(F)(F)F)C(=O)N1Cc1cccnc1` (configuration not stated), for which the AC50 was > 30 µM (inactive).

As to `O=C1NC(=S)N/C1=C\c1ccc(N2CCOCC2)cc1`, the AC50 is > 30 µM (inactive). As to `Cc1onc(-c2ccccc2Cl)c1C(=O)Nc1cccc(-c2cn3cccnc3n2)c1`, the AC50 was > 30 µM (inactive).

With `COc1cc2c(cc1OC)C(C)N(C(=O)Cn1ncc3c1-c1cc(C)ccc1OC3)CC2` (configuration not stated), the AC50 was > 30 µM (inactive). Then `COc1ccc2nc(NC(=O)CN3C(=O)NC4(CCCC4)C3=O)sc2c1`, with 26.3 µM; and `N#Cc1c(Nc2ccccc2)c(/C=N/NCCO)c[nH]c1=O`, with > 30 µM (inactive). As to `Fc1cccc(/C=N/Nc2nccnc2Cl)c1`, the AC50 is > 30 µM (inactive). For the compound `CCOC(=O)c1nc(NCc2cccc(OC)c2)c2ccccc2n1`, the AC50 is > 30 µM (inactive). With `Cn1cnc(C(=O)NC2CCN(C(=O)OC(C)(C)C)CC2)c1C(=O)NC1CCN(C(=O)OC(C)(C)C)CC1`, the AC50 was > 30 µM (inactive). For the compound `Cc1ccc(C2CC(=O)N3CN(Cc4ccco4)CSC3=C2C#N)cc1` (configuration not stated), the AC50 was > 30 µM (inactive). As for `COc1ccc(OC)c(S(=O)(=O)N2CCN(C(=O)c3cc(C4CC4)nn3-c3ccccc3)CC2)c1`, the AC50 was > 30 µM (inactive). Then `COc1ccc(CC(=O)Oc2ccc(C)cc2C)cc1`, with > 30 µM (inactive); and `O=Cc1c(NCCc2cccc(F)c2)c2ccccc2[nH]c1=O`, with 15.2 µM; and `CS(=O)(=O)N1CCN(c2ccccc2NC(=O)c2cccs2)CC1`, with > 30 µM (inactive).

In the case of `NCc1cccc(CNc2ccc([N+](=O)[O-])cc2C(N)=O)c1`, the half-maximal activity concentration (AC50) was 5.96 µM. Turning to `Nn1c(-c2ccc(O)cc2)nnc1-c1ccc(O)cc1`, the AC50 was > 30 µM (inactive).

For the compound `COC(=O)CCCCCCCCC(O)CN(C)C` (configuration not stated), the AC50 is > 30 µM (inactive). With `CC1CCc2c(sc(NC(=O)CCCn3cnc([N+](=O)[O-])n3)c2C(N)=O)C1` (configuration not stated), the AC50 was > 30 µM (inactive). On to `Cc1onc(-c2ccccc2Cl)c1C(=O)Nc1ccc(-c2cn3cccnc3n2)cc1`, for which the AC50 was > 30 µM (inactive). Regarding `Cc1cc2nc(-c3ccc(SCC(=O)NC(C)C)nc3)[nH]c2cc1C`, the AC50 is > 30 µM (inactive).

Regarding `C/C(NCCCn1ccnc1)=C(\C#N)C(N)=O`, the AC50 is 19.2 µM. Then `Nc1c(C(=O)O)cnc2c(-c3ccc(Cl)cc3)cnn12`, with 15.8 µM; and `CCOC(=O)c1nnn(-c2nonc2N)c1-c1ccccc1Cl`, with 8.37 µM; and `CCOc1ccc(-c2c(C(=O)N/N=C(\C)c3ccncc3)nnn2-c2nonc2N)cc1`, with 20.9 µM. Then `Cc1ccc(-c2c3c(nc4sc(C(N)=O)c(N)c24)CCC3)cc1`, with 5.39 µM; and `Cn1c(=O)c2[nH]c(NCC3CCCO3)nc2n(-c2ccccc2)c1=O` (configuration not stated), with 11 µM. The same measure for `O=[N+]([O-])c1cc(S(=O)(=O)N2CCCC2)ccc1NCCCN1CCOCC1`: > 30 µM (inactive); for `O=C1c2ccccc2C(=O)c2c(Nc3ccc(CCO)cc3)ccc(O)c21`: > 30 µM (inactive).

With `O=C(Nc1ccccc1-c1nnc(SCc2ccccc2Cl)o1)c1ccccc1`, the AC50 was > 30 µM (inactive). The same measure for `CCOc1ccc2ncc(S(=O)(=O)c3ccccc3)c(N3CCN(c4ccccc4)CC3)c2c1`: > 30 µM (inactive).

On to `COc1ccc(CC(=O)N2CCOCC2)cc1OC`, for which the AC50 is > 30 µM (inactive). The same measure for `CCOC(=O)C1CCCN(Cc2sccc2C)C1` (configuration not stated): > 30 µM (inactive); for `O=C(O)c1ccc2c(c1Nc1ccccc1)C(=O)c1ccccc1C2=O`: 18.6 µM; for `O=C(O)CCCNc1ccc([N+](=O)[O-])c(NCCCC(=O)O)n1`: > 30 µM (inactive). The same measure for `Cc1cccc(OCC(=O)Nc2ccc3c(c2)C(=O)NC3=O)c1`: > 30 µM (inactive); for `C=CCc1cccc(/C=N/n2c(C)nnc2C)c1O`: > 30 µM (inactive); for `Fc1ccccc1/C=N/Nc1cc(N2CCCCC2)ncn1`: > 30 µM (inactive).

Turning to `N#Cc1c(-c2ccc(F)cc2)c2c([nH]c1=O)-c1ccccc1OC2`, the AC50 is > 30 µM (inactive). Consider `Cc1n[nH]c(=S)n1/N=C/c1ccc(-c2ccccc2[N+](=O)[O-])o1`, for which the AC50 is 24.9 µM. Then `COc1ccc(-n2c(O)c(C=NC3CC3)c(=O)[nH]c2=O)cc1`, with 24.9 µM. Then `Cc1cnc(NC(=O)C2CC(=O)N(c3ccc4c(c3)OCCO4)C2)s1` (configuration not stated), with > 30 µM (inactive); and `CC1(C)Cc2c(sc3ncn(N)c(=N)c23)CO1`, with > 30 µM (inactive). Turning to `Cc1nn(C)c(C)c1CN(C)S(=O)(=O)c1ccc(F)cc1`, the AC50 is > 30 µM (inactive). The same measure for `COC(=O)CSc1nc(NCC(C)C)nc(N2CCOCC2)n1`: > 30 µM (inactive); for `CC(/C=N/NC(=O)c1nnn(-c2nonc2N)c1C(C)C)=C\c1ccco1`: > 30 µM (inactive); for `Oc1ccc(/C=N/NC(=S)N/N=C/c2ccc(O)cc2)cc1`: 23.5 µM. Consider `Cc1cccc2c(N=Nc3ccccc3)c(O)[nH]c12`, for which the AC50 is > 30 µM (inactive).

As for `CC1(c2ccccc2)CC(C)(C)N2C(=O)/C(=C3\SC(=S)NC3=O)c3cccc1c32` (configuration not stated), the AC50 is > 30 µM (inactive).

For `CCOc1ccccc1C1N(c2ccc(OC)cc2)C(=O)C2CCCN21` (configuration not stated), the AC50 is > 30 µM (inactive). Turning to `COc1ccc(-c2noc(CSc3nc(-c4ccccc4)cc(=O)[nH]3)n2)cc1`, the AC50 was > 30 µM (inactive). As to `CC(C)N=C(NC#N)SCc1ccc(Br)cc1`, the AC50 was > 30 µM (inactive). In the case of `Cc1nc2ncnn2c(C)c1Cc1c(Cl)cccc1Cl`, the AC50 was > 30 µM (inactive).

For `Cc1ccc(-n2nnnc2SCc2nnc(-c3ccccc3Br)o2)cc1`, the AC50 was > 30 µM (inactive). Then `CCCCC(=O)Nc1nn(CCC)c2nc3ccccc3cc12`, with > 30 µM (inactive).
